Test results from patent publication US20240299401A1, “NOVEL REDOX-BASED THERAPEUTIC APPROACH FOR TREATMENT OF CANCER” (THE PENN STATE RESEARCH FOUNDATION, priority 2020, published 2024).
Where two headings read alike, the source gives them in different places.

Legend:
HL60 = assay: WST-1 cytotoxicity and synergy analysis, HL60; assay type: cell-based, human; details: HL60 (Leukemia), compound alone, 24 h, '>' = dose approximation, read-out: IC50 values
Method: (§1) Two different cytotoxicity/proliferation kit was used in this study i.e., WST-1 proliferation assay kit (Roche, Indianapolis, IN, USA; Cat #28620000) and Cell-titer Glo-luminescent cell viability assay (Promega, WI, USA; Cat #0000348721). Majority of the cell proliferation/cytotoxicity experiments were performed with WST-1 assay. Briefly, cells were seeded at the indicated density for 24 h in 96 well plate, media was replaced, and subsequently treated with the test compounds at different doses. […] Cell titer Glo-assay was additionally performed in certain cases to validate the results from WST-1 assay as outlined above following manufacturer's instructions and luminescence was measured using a FLx100 Luminometer (CLARIOSTAR®, Ortenbery, Germany). […] Other proliferation/cytotoxicity assays were also carried out i.e., Quant™-iT PicoGreen ds DNA assay kit (Thermo Scientific, Rockwood, TN, USA, P7589) following manufacturer's instructions, Trypan blue (Sigma, Ayrshire, UK, T8154) and acid phosphatase assay for validation of cytotoxicity/proliferation data from other assays.

H661 = assay: WST-1 cytotoxicity, H661; assay type: cell-based, human; details: H661 (Lung), compound alone, 24 h, '>' = dose approximation, read-out: IC50 values
Method: as §1

NB4 = assay: WST-1 cytotoxicity, NB4; assay type: cell-based, human; details: NB4 (Leukemia), compound alone, 24 h, '>' = dose approximation, read-out: IC50 values
Method: as §1

A549 = assay: WST-1 cytotoxicity, A549; assay type: cell-based, human; details: A549 (Lung), compound alone, 24 h, '>' = dose approximation, read-out: IC50 values
Method: as §1

ATF4 = details: HEK293 ATF4 reporter; tunicamycin 2.5 μM, other compounds 5.0 μM; 24 h
Method: The next day, media was replaced with respective compounds as described. Twenty-four hours post-treatment, media were aspirated and replaced with 1:1 ratio of PBS:Bright Glo luciferase reagent mix (Promega, Madison, WI, USA) according to manufacturer's protocol. Cells were incubated in the dark for 10 min at room temperature with gentle rocking and luciferase activity was measured using an FLx100 Luminometer (CLARIOSTAR®, Ortenbery, Germany). In parallel, the same setup was made, and the cells were used to monitor the proliferation/toxicity of individual exposed compounds. Luciferase signal is normalized to the to the proliferation/toxicity of the individual compounds. Bortezomib (50 nM, Sigma-Aldrich, St. Louis, MO, USA), a known agonist for ATF4, was used as a positive control.
The next day, old media was replaced with media containing the respective compounds as described in the figure legends. […] Cells were incubated in the dark for 10 min at room temperature with gentle rocking and luciferase activity was measured using an FLx100 Luminometer (CLARIOSTAR®, Ortenbery, Germany). […] In parallel, the same setup was made, and the cells were used to monitor the proliferation/toxicity of individual compounds. Luciferase signal was normalized to correct for the proliferation/toxicity of the individual compounds. […] For ATF4 reporter assay, Hek293T reporter cells 20 were cultured similarly as indicated for MCF7 cells, except for seeding density was set at 300 cells/mm2. All other experimental set up was similar.

[1] = test system: extracellular reduced thiols; assay: Extracellular thiols measurement (DTDP method); assay type: cell-based, human; details: for extracellular reduced thiols levels: MCF7 cells; for thiols efflux: A549 and H1299, 24 h, Erastin 5 μM, MSG 50 mM, Sorafenib 2.5 μM, trans-2,4-PDC 100 μM
Method: Cell culture media was collected at specified time points after incubation with the respective compounds as described in the respective figure legends and extracellular total thiols were measured using the DTDP method 19. The protocol was adjusted to 96-well plate format. […] Absorbance was measured at 324 nm in a spectrophotometer (PowerWave HT, BioTek, VT, USA). The assay mixture with fresh media was used as a blank.

H1299 = assay: WST-1 cytotoxicity, H1299; assay type: cell-based, human; details: H1299 (Lung); compound alone; 24 h; '>' = dose approximation; read-out: IC50 values
Method: as §1

MCF-7 = assay: WST-1 cytotoxicity, MCF-7; assay type: cell-based, human; details: MCF7 (Breast); compound alone; 24 h; '>' = dose approximation; read-out: IC50 values
Method: as §1

SLC7A11 = SLC7A11 mRNA expression (qRT-PCR); details: HL60 and H1299 cells

Question: Which results are given for `C[S+]([O-])CCCCN=C=S` (stereo not shown) [Sulforaphen, reference compound]?
Answer: IC50 (HL60; Homo sapiens, HL-60): > 20 µM; IC50 (H661; Homo sapiens, NCI-H661): > 10 µM; IC50 (NB4; Homo sapiens, NB-4): > 20 µM; IC50 (A549; Homo sapiens): > 10 µM; ATF4 activity (ATF4): not effective; extracellular reduced thiols levels [1]: induced

Question: With `CCCCS(=N)(=O)CCC(N)C(=O)O` (stereo not shown) [BSO] as the molecule, how does the “impact on the DPDS-induced increase in thiols efflux” value ([1]; MCF7, co-exposure, time-course) read?
Answer: little or no impact

Question: Which results are given for Tunicamycin [reference compound]?
Answer: IC50 (H1299): > 20 µM; IC50 (MCF-7): > 5 µM; ATF4 activity (ATF4): Increased ATF4 activity; SLC7A11 expression (SLC7A11): Increased SLC7A11 expression

Question: With `CC(C)(C)c1cc(O)ccc1O` [Tert-butyl hydroxyquinone, reference compound] as the molecule, how does the IC50 (HL60) read?
Answer: > 25 µM

Question: And the IC50 (H1299)?
Answer: > 100 µM

Question: And the IC50 (H661)?
Answer: > 40 µM

Question: What about the IC50 (NB4) of the same molecule?
Answer: > 20 µM

Question: What about the IC50 (A549) of the same molecule?
Answer: > 20 µM

Question: And the IC50 (MCF-7)?
Answer: > 60 µM

Question: And the ATF4 activity (ATF4)?
Answer: not effective

Question: And the “extracellular reduced thiols levels” value [1]?
Answer: induced

Question: What about the SLC7A11 expression (SLC7A11) of the same molecule?
Answer: Increased SLC7A11 expression

Question: With `O=C(O)[C@H]1CN[C@H](C(=O)O)C1` (relative stereo) [trans-2,4-PDC] as the molecule, how does the thiols efflux [1] read?
Answer: no effect

Question: With `c1ccc(C[Se][Se]Cc2ccccc2)cc1` [DBDS, dibenzyl diselenide] as the molecule, how does the extracellular reduced thiols ([1]; HEK293 ATF4 reporter cells, 5.0 μM) read?
Answer: increased levels of extracellular reduced thiols

Question: And the extracellular reduced thiols ([1]; all the tested cell lines, H1299 and HL60)?
Answer: highly effective

Question: With `COc1cc(/C=C/C(=O)CC(=O)/C=C/c2ccc(O)c(OC)c2)ccc1O` [Curcumin, reference compound] as the molecule, how does the IC50 (HL60; Homo sapiens, HL-60) read?
Answer: > 20 µM

Question: What about the IC50 (H661; Homo sapiens, NCI-H661) of the same molecule?
Answer: > 20 µM

Question: And the IC50 (NB4; Homo sapiens, NB-4)?
Answer: > 20 µM

Question: And the IC50 (A549; Homo sapiens)?
Answer: > 20 µM

Question: How did the thiols efflux [1] turn out when `CNC(=O)c1cc(Oc2ccc(NC(=O)Nc3ccc(Cl)c(C(F)(F)F)c3)cc2)ccn1` [sorafenib] was run?
Answer: no effect
